According to patent US20180200326A1, “ANG-(1-7) AND DERIVATIVE OLIGOPEPTIDES FOR THE TREATMENT OF TRAUMATIC BRAIN INJURY AND OTHER COGNITIVE IMPAIRMENTS” (Arizona Board Of Regents On Behalf Of The University of …, priority 2017, published 2018):
Where two headings read alike, the source gives them in different places. Peptide text beside a SMILES is read from it. * marks the point of attachment. X2 = OC[C@H]1O[C@@H](O[C@H]2[C@H](O)[C@@H](O)C(*)O[C@@H]2CO)[C@H](O)[C@@H](O)[C@H]1O; X1 = OC[C@H]1OC(*)[C@H](O)[C@@H](O)[C@@H]1O

Experiments:
[1] = tested on: human umbilical vascular endothelial cells (HUVEC); assay: xCELLigence RTCA cell activation (cell impedance); assay type: cell-based; settings: average of 4 wells, normalized to CI at compound addition
Source text: (§1) To isolate primary hippocampal CA1 neuronal cells, whole brain was removed from neonatal rat pups (1-2 day old) and the cortices dissected away. The hippocampus was isolated and the CA1 field was excised and placed in buffer. After gentle disruption in digestion buffer, the cells were counted, placed in culture media, and plated in a 96-well format coated with poly-d-lysine. At the time of plating, cells were approximately at 50% density and were allowed to culture to 70-80% density before starting the assay. Commercially available HUVEC (Life Technologies/Thermo Fisher) was thawed and plated (5000-10,000 cells/well) in a 96-well format coated with gelatin. HUVEC cells were allowed to culture overnight before starting the assay.
The xCELLigence system Real-Time Cell Analyzer (RTCA), developed by Roche Applied Science, uses microelectronic biosensor technology to do dynamic, real-time, label-free, and non-invasive analysis of cellular events including G-protein receptor activation of cells. The RTCA analysis was utilized to measure the potency and relative ability of oligopeptides of the invention and native Ang-(1-7) to activate human umbilical vascular endothelial cells (HUVEC) in culture. Following uniform cellular adherence based on a linear increase in cell impedance (CI), HUVECs were treated with Ang-(1-7) and oligopeptides of the invention. Each trace of the CI over time in FIG. 1 represents the average of 4 wells normalized to CI at the time of compound addition.

[2] = tested on: human umbilical vascular endothelial cells (HUVEC); assay: NO production assay (DAF-FM fluorescence, microplate reader); assay type: cell-based; settings: 5 minutes exposure; for NO over control levels (relative peak fluorescence intensity): normalized to control fluorescence
Source text: as §1
As a screen for mechanisms of action of oligopeptides of the invention, the ability to increase NO production of three oligopeptides of the invention (PN-A3, PN-A4 and PN-A5) were characterized and compared to native Ang-(1-7). Human umbilical vascular endothelial cells (HUVEC) culture plates received fluorescence reaction buffer (0.2 M phosphate buffer, pH 7, 1 mM EDTA, 0.1% glucose) containing diaminofluorescein-FM diacetate (DAF-FM, 1 μM) to measure real-time NO production. Time-resolved (10 minutes) fluorescent intensity was detected using a BioTek Synergy 2 microplate reader with excitation at 485 nm and emission at 535 nm. DAF-FM is a sensitive flourometric derivative for the selective detection of NO in live cells.
Values were normalized to control fluorescence.

[3] = In Vitro Serum Half-Life Assay; settings: mouse
Experimental: (§3) Aliquots were withdrawn at the indicated time intervals and the peptide concentration was determined using HPLC-MS and expressed as a percentage of the initial concentration.

[4] = mouse, serum
Experimental: as §3

[5] = mouse, in vivo, sc, 10 mg/kg
Experimental: (§4) The peptides (10 mg/kg) or vehicle control were individually subcutaneously injected into naïve mice. Serum concentrations were determined every 10 minutes by HPLC-MS using a 20-30 μl blood sample. […] CSF samples were simultaneously withdrawn from the same animals via a microdialysis probe and assayed for the peptide concentration and corrected for basal CSF levels.

[6] = target: T1, Mas receptor (MasR) (Homo sapiens, UniProt P04201); settings: binding to GPCR Mas receptor (MasR); cited from earlier work
T1 sequence (P04201 1-325): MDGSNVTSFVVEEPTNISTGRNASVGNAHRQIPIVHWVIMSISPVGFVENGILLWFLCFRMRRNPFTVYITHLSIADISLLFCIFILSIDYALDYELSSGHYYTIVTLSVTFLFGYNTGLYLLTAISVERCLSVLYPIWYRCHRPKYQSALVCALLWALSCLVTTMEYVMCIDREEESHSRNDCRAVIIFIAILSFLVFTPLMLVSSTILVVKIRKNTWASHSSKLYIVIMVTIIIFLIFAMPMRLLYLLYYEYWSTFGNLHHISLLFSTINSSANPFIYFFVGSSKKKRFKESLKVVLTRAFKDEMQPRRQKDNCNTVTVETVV

[7] = in vivo; settings: mouse, sc, 10 mg/kg
Experimental: as §4

[8] = tested on: CHF mice (object recognition memory impairment); assay: Novel Object Recognition (NOR) in congestive heart failure mice; assay type: in vivo, mouse; settings: 1 mg/kg/day subcutaneous, approximately 21 days, n=11, DRatio=(t novel−t familiar)/(t novel+t familiar), CHF-saline M=−0.05, Sham-saline M=+0.52
Experimental: (§2) A total of 33, male C57Bl/6J adult mice (Harlan, 8-10 weeks old) were used. Mice were randomly assigned to either the sham (n=12) or congestive heart failure (CHF) group (n=21). Experimental groups are described as follows: sham+saline, CHF+saline, CHF+PN-A5. All mice prior to surgery were weighed and anesthetized. For the CHF mice, MI was induced by ligation of the left coronary artery (LCA). Under anesthesia (2.5% isoflurane in a mixture of air and O2) a thoracotomy was performed at the fourth left intercostal space and the LCA permanently ligated to induce a myocardial infarction (MI). […]
The apparatus consisted of an evenly illuminated Plexiglas box (12 cm×12 cm×12 cm) placed on a table inside an isolated observation room. […] The mouse behavior and exploration of objects was recorded with a digital camera. […]
The novel object recognition task included 3 phases: habituation phase, familiarization phase, and test phase. […] Exploration was scored by an observer blind to the mouse's surgical group (CHF vs. Sham). […]
Discrimination ratios were calculated from the time spent exploring the novel object minus time spent exploring the familiar object during the test phase divided by the total exploration time. […] Data were analyzed from first 2 minutes of ‘test phase’. […]

[9] = tested on: CHF mice (spatial memory impairment); assay: Morris water task (spatial memory) in congestive heart failure mice; assay type: in vivo, mouse; settings: 1 mg/kg/day subcutaneous, approximately 25 days, day 3 of Morris swim task, n=11, CHF-saline M=32.5
Experimental: as §2, with “(MI). Occlusion of the LCA was confirmed by observing blanching, a slight change in color of the anterior wall of the left ventricle downstream of the ligature. Sham mice underwent the same procedure with the exception of ligating the LCA.” for “(MI).”
During the spatial version of the Morris water task, all animals were given 6 training trials per day over 4 consecutive days. […] Performance on the swim task was analyzed with a commercial software application (ANY-maze, Wood Dale, Ill.). Because different release locations and differences in swimming velocity produce variability in the latency to reach the escape platform, a corrected integrated path length (CIPL) was calculated to ensure comparability of mice performance across different release locations. […]

[10] = In vivo serum and CSF concentration after subcutaneous injection; settings: naïve mice; 10 mg/kg subcutaneous; microdialysis probe; corrected for basal CSF levels
Experimental: as §4

Compound	increase in CI (cell impedance) over the native Ang-(1-7) ([1]; 100 nM)	NO over control levels (relative peak fluorescence intensity) [2]	increase in CI (cell impedance) over the native Ang-(1-7) ([1]; 10 nM)	half-life [4]	other results
PN-A4: native Ang(1-7) sequence with added C-terminal Ser8, lactosylated and C-terminally amidated (NH2); SEQ ID NO: 9 (DRVYIHPS; lactosylated, C-terminal amide; (8)..(8) Glycosylated; (8)..(8) Carboxy terminal NH2; See specification as filed for detailed description of substitutions and preferred embodiments)	~2 fold	significant elevation			
CC[C@H](C)[C@H](NC(=O)[C@H](Cc1ccc(O)cc1)NC(=O)[C@@H](NC(=O)[C@H](CCCNC(=N)N)NC(=O)[C@@H](N)CC(=O)O)C(C)C)C(=O)N[C@@H](Cc1c[nH]cn1)C(=O)N[C@@H](COC1O[C@H](CO)[C@@H](O[C@@H]2O[C@H](CO)[C@H](O)[C@H](O)[C@H]2O)[C@H](O)[C@H]1O)C(N)=O (stereo partly drawn) [PN-A6, Ang 1-6-Ser(OLac)-NH2] (H-DRVYIHS(X2)-NH2)					half-life [3]: 348 min
PN-A3: native Ang(1-7) sequence with added C-terminal Ser8, glucosylated and C-terminally amidated (NH2); SEQ ID NO: 9 (DRVYIHPS; glucosylated, C-terminal amide; (8)..(8) Glycosylated; (8)..(8) Carboxy terminal NH2; See specification as filed for detailed description of substitutions and preferred embodiments)	~2 fold	significant elevation	~2 fold		
CC[C@H](C)[C@H](NC(=O)[C@H](Cc1ccc(O)cc1)NC(=O)[C@@H](NC(=O)[C@H](CCCNC(=N)N)NC(=O)[C@@H](N)CC(=O)O)C(C)C)C(=O)N[C@@H](Cc1c[nH]cn1)C(=O)N1CCC[C@H]1C(N)=O [PN-A2, Ang 1-7-NH2]				21 min	
CC[C@H](C)[C@H](NC(=O)[C@H](Cc1ccc(O)cc1)NC(=O)[C@@H](NC(=O)[C@H](CCCNC(=N)N)NC(=O)[C@@H](N)CC(=O)O)C(C)C)C(=O)N[C@@H](Cc1c[nH]cn1)C(=O)N1CCC[C@H]1C(=O)O [native Ang-(1-7), Asp-Arg-Val-Tyr-Ile-His-Pro]				14 min	maximum CSF concentration [5]: about 50 nM; Kd [6]: 830 pM; Cmax [7]: ~200 nM
CC[C@H](C)[C@H](NC(=O)[C@H](Cc1ccc(O)cc1)NC(=O)[C@@H](NC(=O)[C@H](CCCNC(=N)N)NC(=O)[C@@H](N)CC(=O)O)C(C)C)C(=O)N[C@@H](Cc1c[nH]cn1)C(=O)N[C@@H](COC1O[C@H](CO)[C@@H](O)[C@H](O)[C@H]1O)C(N)=O (stereo partly drawn) [PN-A5, Ang 1-6-Ser(OGlc)-NH2] (H-DRVYIHS(X1)-NH2; N-terminus assumed)	~2 fold	significant elevation	~2 fold		NO production compared with native Ang-(1-7) ([2]; p<0.05): significantly enhancing NO production; discrimination ratio in NOR test (mean M) [8]: +0.38; corrected integrated path length (CIPL), mean M [9]: 23.5; maximum CSF concentration [10]: about 400 nM
